Measurements: PubChem BioAssay (NCI)
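Values below derive from 48-hour exposures of cells grown in 96-well plates, with endpoints linearly interpolated between the two concentrations bracketing the appropriate inhibition level. GI50 = concentration required for 50% inhibition of growth. TGI marks complete inhibition of growth.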

Legend:
Assay in all cases: growth of human tumour cells (NCI), 48 h
OVCAR-8 ovarian = system: OVCAR-8 ovarian
COLO 205 colon = system: COLO 205 colon
UO-31 renal = system: UO-31 renal
786-0 renal = system: 786-0 renal
RXF 393 renal = system: RXF 393 renal
OVCAR-4 ovarian = system: OVCAR-4 ovarian
UACC-257 melanoma = system: UACC-257 melanoma
NCI-H522 lung = system: NCI-H522 lung
MDA-MB-231 breast = system: MDA-MB-231 breast
NCI/ADR-RES ovarian = system: NCI/ADR-RES ovarian

SMILES | TGI (OVCAR-8 ovarian) | TGI (COLO 205 colon) | TGI (UO-31 renal) | TGI (786-0 renal) | TGI (RXF 393 renal) | TGI (OVCAR-4 ovarian) | TGI (UACC-257 melanoma) | TGI (NCI-H522 lung) | GI50 (MDA-MB-231 breast) | TGI (MDA-MB-231 breast) | GI50 (OVCAR-8 ovarian) | GI50 (COLO 205 colon) | GI50 (UO-31 renal) | GI50 (786-0 renal) | GI50 (NCI/ADR-RES ovarian) | TGI (NCI/ADR-RES ovarian) | GI50 (OVCAR-4 ovarian) | GI50 (NCI-H522 lung) | GI50 (RXF 393 renal) | GI50 (UACC-257 melanoma)
CC(C)C(=S)N(C)O | > 100 µM | > 100 µM | 50.2 µM | > 100 µM | > 100 µM | > 100 µM | > 100 µM | > 27.2 µM | – | – | – | – | – | – | – | – | – | – | – | –
CCN(CC)c1ccc(N=Nc2ccc(-c3nc4cccn(C)c-4n3)cc2)cc1 | 24 µM | 27.9 µM | 41 µM | 17 µM | 11.8 µM | 31.2 µM | 42.3 µM | 19.9 µM | – | – | – | – | – | – | – | – | – | – | – | –
CC1=C(C(=O)Nc2ccccc2)C(c2cc(Cl)cc(Cl)c2)C(C(=O)Nc2ccccc2)=C(C)N1 | 43.5 µM | 31 µM | 26.9 µM | 22.9 µM | 26.3 µM | 19.2 µM | 27.2 µM | 13.3 µM | – | – | – | – | – | – | – | – | – | – | – | –
Clc1ccc(OCc2nnc3n2N=C(c2ccccc2)CS3)c(Cl)c1 | > 100 µM | – | 8.46 µM | > 100 µM | > 100 µM | > 100 µM | > 100 µM | > 100 µM | – | – | – | – | – | – | – | – | – | – | – | –
CCOC(=O)C1=C(C(=O)OCC)C2(c3ccccc3)N(O1)c1ccccc1C2(C)C (configuration not stated) | > 100 µM | > 100 µM | 67.1 µM | > 100 µM | > 100 µM | 71.8 µM | > 100 µM | 63.8 µM | – | – | – | – | – | – | – | – | – | – | – | –
O=C1C=C(Nc2ccc(S(=O)(=O)Nc3ncccn3)cc2)c2ccccc2C1=O | 42.4 µM | 39.4 µM | 57.5 µM | 45.6 µM | 48 µM | 38.8 µM | 41.7 µM | 32 µM | – | – | – | – | – | – | – | – | – | – | – | –
CC(C)(C)c1nc(-c2cccc(NS(=O)(=O)c3c(F)cccc3F)c2F)c(-c2ccnc(N)n2)s1 | > 100 µM | > 100 µM | > 100 µM | > 100 µM | – | > 100 µM | – | 54.7 µM | 7.19 µM | > 69.9 µM | 49.1 µM | < 0.01 µM | 0.46 µM | 48.9 µM | 50.9 µM | > 100 µM | 50.5 µM | 19 µM | – | –
CCOc1ccc(C(C)=O)cc1NC(=O)c1cccc(-c2nnn(CC)n2)c1 | > 100 µM | 1.93 µM | > 100 µM | 74.2 µM | 11.6 µM | > 100 µM | – | 0.971 µM | 1.62 µM | 58.5 µM | 1.29 µM | 0.395 µM | 1.94 µM | 6.25 µM | 0.511 µM | 13.3 µM | 4.96 µM | 0.147 µM | 0.61 µM | –
COC(=O)N/N=C(\C)C(CN(C)C)C(c1ccccc1)c1c(O)c2ccccc2oc1=O (configuration not stated) | > 100 µM | > 100 µM | > 100 µM | > 100 µM | > 100 µM | > 100 µM | > 100 µM | > 100 µM | – | – | – | – | – | – | – | – | – | – | – | –
C[C@H](NC(=O)c1c(C(F)F)nn(C)c1Oc1cccc(C(F)(F)F)c1)c1ccc(C(=O)O)cc1 | > 100 µM | > 100 µM | > 100 µM | > 100 µM | – | > 100 µM | > 100 µM | > 100 µM | > 100 µM | > 100 µM | > 100 µM | > 100 µM | > 100 µM | > 100 µM | > 100 µM | > 100 µM | > 100 µM | > 100 µM | – | > 100 µM
C/C(O)=C(\N=O)C(=O)NCc1ccccc1 | > 100 µM | > 100 µM | > 100 µM | > 100 µM | > 100 µM | – | > 100 µM | > 100 µM | – | – | – | – | – | – | – | – | – | – | – | –
CCC[CH2][Sn]([CH2]CCC)([O]C(=O)c1cccc(F)c1F)[O]C(=O)c1cccc(F)c1F | 2.57 µM | 2.13 µM | 2.92 µM | 2.22 µM | 1.22 µM | 3.31 µM | 2.28 µM | 0.277 µM | – | – | 1.3 µM | 0.962 µM | 1.56 µM | 1.05 µM | – | – | 1.86 µM | 0.133 µM | 0.321 µM | 1.09 µM
CCCCCCCCCCOC(=O)c1cc[n+](C)cc1 | 31.4 µM | 30.3 µM | 30.3 µM | 31.7 µM | 34.3 µM | 33 µM | 34 µM | 30 µM | – | – | – | – | – | – | – | – | – | – | – | –
c1ccc(C2CC(c3ccc4ccccc4c3)=Nc3ccccc3S2)cc1 (configuration not stated) | 29.9 µM | – | 25.1 µM | 30.2 µM | 33.4 µM | 37.5 µM | 34.9 µM | 33.2 µM | – | – | – | – | – | – | – | – | – | – | – | –
COc1ccc2c(c1)CCc1c(CO)c(COC(=O)NC(C)C)n(C)c1-2 | 21.2 µM | 4.68 µM | 19.6 µM | > 100 µM | 38.7 µM | 53.5 µM | 27.1 µM | 14.4 µM | – | – | – | – | – | – | – | 59.2 µM | – | – | – | –
N#C/C(=C\c1ccccc1)C(NO)Nc1ccccc1 (configuration not stated) | > 100 µM | > 100 µM | > 100 µM | > 100 µM | > 100 µM | > 100 µM | > 100 µM | > 100 µM | – | – | – | – | – | – | – | – | – | – | – | –
COc1ccc(-c2n[nH]nc2-c2cc(OC)c3c(c2)OCO3)cc1 | > 52.9 µM | 1.17 µM | 73 µM | 28.5 µM | – | > 100 µM | > 100 µM | – | 0.0409 µM | 0.437 µM | 0.035 µM | 0.206 µM | 0.0505 µM | 0.0423 µM | < 0.01 µM | 0.982 µM | 1.25 µM | < 0.01 µM | – | 20.5 µM
Cc1ccccc1N=Nc1c(-c2ccccc2)nn(C(=O)CC(=O)Nc2cccc(Cl)c2)c1-c1ccccc1 | > 31.6 µM | 20.8 µM | > 31.6 µM | > 31.6 µM | 28.4 µM | > 31.6 µM | 2.58 µM | – | – | – | – | – | – | – | – | – | – | – | – | –
CCCCN1C(=O)/C(=c2\sc3n(c2=O)C2C(NN=3)N(CC)C(=O)N2CC)c2ccccc21 (configuration not stated) | – | – | – | 4.18 µM | 2.23 µM | 4.83 µM | – | 3.44 µM | 1.38 µM | 3.74 µM | – | – | – | 1.14 µM | – | – | 0.909 µM | 0.508 µM | 0.365 µM | –
COc1cc2nc(-c3cccc4cccnc34)nc(NC3CCN(Cc4ccccc4)CC3)c2cc1OC | 2.64 µM | – | 2.88 µM | 2.69 µM | – | 2.71 µM | 4.1 µM | 3.98 µM | 1.36 µM | 2.75 µM | 0.647 µM | – | 1.43 µM | 1.2 µM | 2.1 µM | 5.61 µM | 1.11 µM | 1.45 µM | – | 2.07 µM
